According to patent US12239635B2, “Treatment of cognitive disorders using nitazoxanide (NTZ), nitazoxanide (NTZ) analogs, and metabolites thereof” (The Trustees of Columbia University in the City of New York, priority 2018, dated 2025):
Each block holds one compound with its values, some of them ahead of it.

Assays:
[1] = literature (Stockis et al. and others); cited from earlier work
[2] = in vivo; details: Sprague Dawley, rat, po; for AUC(0-inf): AUC0-∞; for AUC(0-t): AUClast
Experimental: A pharmacokinetic experiment was performed to determine Tizoxanide (TIZ, active metabolite of Nitazoxanide, NTZ) in rat brain and plasma following oral administration to Sprague Dawley (SD) rat.
An Nitazoxanide (NTZ) pill (Alinia) solution was prepared at a concentration of 14.5 mg/mL (10.0 mg/mL as Nitazoxanide (NTZ) for oral administration (per os, PO), ad libitum, in a mixture of 0.5% methyl cellulose and 99.5% saline. The PO dosing volume was 10 mL/kg. SD rats (n=3 per time point; weighing 0.161 to 0.171 kg) were fasted and oral administration was given using a gavage needle. Blood samples were collected from jugular vein and brain tissues were sampled at 0.33, 1 and 4 hrs after oral administration. Blood samples were centrifuged immediately and a 100 ul aliquot of plasma, and the brain tissues were stored −20° C. until the analysis. The concentration of Nitazoxanide (NTZ) and Tizoxanide (TIZ) in plasma and brain were determined by HPLC/MS/MS analysis. An Agilent 1200 HPLC with Zorbax C18 column and an API4000 tandem quadrupole mass spectrometer were used. The molecular ions of Nitazoxanide (NTZ), Tizoxanide (TIZ) and an internal standard (Chlorzoxazone) were fragmented and detected by monitoring the transitions for each compound. Peak areas were integrated using Analyst software version 1.5.1. (Applied Biosystems). The quantifiable range was from 0.001 to 3 μg/ml for plasma and brain samples. Plasma or brain concentration-time profile for each rat was analyzed (WinNonlin 4.1 program) to obtain pharmacokinetic profile parameters.
(§1) wherein Cmax indicates maximum plasma concentration observed, Tmax indicates time to Cmax, AUClast indicates the Area Under the Curve from zero to the last time point, AUC0-∞ indicates the total area under the plasma concentration time curve from zero to infinity, and T1/2 indicates terminal elimination half-life. […] Brain/Plasma ratio was calculated using the formula: (Brain AUClast)/(Plasma AUClast).

[3] = in vivo; details: ICR, mouse, po; for AUC(0-inf): AUC0-∞; for AUC(0-t): AUClast
Experimental: as §1

[4] = active metabolite following oral administration of Nitazoxanide; cited from earlier work

SMILES: CC(=O)Oc1ccccc1C(=O)Nc1ncc([N+](=O)[O-])s1 [Nitazoxanide (NTZ), [2-[(5-nitro-1,3-thiazol-2-yl)carbamoyl]phenyl]ethanoate]
Pharmacokinetic profile in humans [1]: excellent pharmacokinetic profiles
Tolerability in humans [1]: well-tolerated
Brain/plasma ratio [2]: 0.008
Brain/plasma ratio [3]: 0.015

Brain/plasma ratio [2]: 0.008
Tmax, brain [2]: 0.53 ± 0.39 h
AUC(0-inf) ([2]; brain): 62.8 ng·h/mL
AUC(0-inf) ([2]; plasma): 5420 ng·h/mL
AUC(0-t) ([2]; brain): 17.9 ± 14.6 ng·h/mL
AUC(0-t) ([2]; plasma): 2320 ± 603 ng·h/mL
half-life ([2]; T1/2, brain): 2.85 h
half-life ([2]; T1/2, plasma): 3.86 h
Tmax ([2]; brain): 0.55 h
Tmax ([2]; plasma): 0.39 h
Brain/plasma ratio [3]: 0.015
Cmax, plasma [3]: 288.50 ± 227.73 ng/mL
Tmax, brain [3]: 1.55 ± 2.12 h
AUC(0-inf) ([3]; brain): 9.06 ng·h/mL
AUC(0-inf) ([3]; plasma): 1000 ng·h/mL
AUC(0-t) ([3]; brain): 7.18 ± 5.62 ng·h/mL
AUC(0-t) ([3]; plasma): 485 ± 163 ng·h/mL
Cmax ([3]; Cmax, plasma): 228 ng/mL
half-life ([3]; T1/2, brain): 1.15 h
half-life ([3]; T1/2, plasma): 3.8 h
Tmax ([3]; brain): 1.78 h
Tmax ([3]; plasma): 0.67 h
SMILES: O=C(Nc1ncc([N+](=O)[O-])s1)c1ccccc1O [Tizoxanide (TIZ), Tizoxanide]
Pharmacokinetic profile in humans [1]: excellent pharmacokinetic profiles
Tolerability in humans [1]: well-tolerated
Protein bound [4]: 99%

SMILES: O=C(Nc1ncc([N+](=O)[O-])s1)c1ccccc1O[C@@H]1O[C@H](C(=O)O)[C@@H](O)[C@H](O)[C@H]1O [Tizoxanide glucuronide (TIZ-G), Tizoxanide glucuronide]
Pharmacokinetic profile in humans [1]: excellent pharmacokinetic profiles
Tolerability in humans [1]: well-tolerated
